Experiments:
alpha 2A = target: T1, alpha 2A (Homo sapiens, UniProt P08913); experiment: R-SAT broad profiling; format: cell-based; settings: read-out: pEC50/pIC50 (converted)
T1 construct: expressed in transfected cells; host or cells: NIH3T3
T1 sequence (P08913 1-465): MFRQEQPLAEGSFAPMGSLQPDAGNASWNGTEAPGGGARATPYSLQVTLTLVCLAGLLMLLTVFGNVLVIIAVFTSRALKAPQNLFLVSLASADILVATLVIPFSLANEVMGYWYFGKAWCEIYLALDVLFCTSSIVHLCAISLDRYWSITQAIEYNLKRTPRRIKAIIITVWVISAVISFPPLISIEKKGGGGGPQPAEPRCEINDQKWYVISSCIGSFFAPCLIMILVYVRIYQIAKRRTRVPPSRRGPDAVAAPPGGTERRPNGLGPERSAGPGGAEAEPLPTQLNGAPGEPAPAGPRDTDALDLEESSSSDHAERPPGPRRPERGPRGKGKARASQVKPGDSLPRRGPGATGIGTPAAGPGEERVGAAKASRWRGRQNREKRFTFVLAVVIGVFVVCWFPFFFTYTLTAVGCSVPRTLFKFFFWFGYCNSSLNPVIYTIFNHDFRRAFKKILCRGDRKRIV
Description: (§1) The functional receptor assay, Receptor Selection and Amplification Technology (R-SAT), was used (with minor modifications from that previously described U.S. Pat. No. 5,707,798) to screen compounds for efficacy at the 5-HT2A receptor. Briefly, NIH3T3 cells were grown in 96 well tissue culture plates to 70-80% confluence. Cells were transfected for 12-16 hours with plasmid DNAs using superfect (Qiagen Inc.) as per manufacture's protocols. R-SAT's were generally performed with 50 ng/well of receptor and 20 ng/well of Beta-galactosidase plasmid DNA. All receptor and G-protein constructs used were in the pSI mammalian expression vector (Promega Inc) as described in U.S. Pat. No. 5,707,798. The 5HT2A receptor gene was amplified by nested PCR from brain cDNA using the oligodeoxynucleotides based on the published sequence (see Saltzman et. al. Biochem. Biophys. Res. Comm. 181:1469-78 (1991)). Large-scale transfections, cells were transfected for 12-16 hours, then trypsinized and frozen in DMSO. Frozen cells were later thawed, plated at 10,000-40,000 cells per well of a 96 well plate that contained drug. With both methods, cells were then grown in a humidified atmosphere with 5% ambient CO2 for five days. Media was then removed from the plates and marker gene activity was measured by the addition of the beta-galactosidase substrate ONPG (in PBS with 5% NP-40). The resulting colorimetric reaction was measured in a spectrophotometric plate reader (Titertek Inc.)at […]. All data were analyzed using the computer program XLFit (IDBSm). Efficacy is the percent maximal repression compared to repression by a control compound (ritanserin in the case of 5HT2A). pIC50 is the negative of the log(IC50), where IC50 is the calculated concentration in Molar that produces 50% maximal repression.
(§2) The R-SAT assay (described above in example 136) was used to investigate the selectivity of 2-(4-Methoxyphenyl)-N-(4-methylbenzyl)-N-(1-methylpiperidin-4-yl)acetamide hydrochloride.

m2 = target: T2, m2 (Homo sapiens, UniProt P08172); experiment: R-SAT broad profiling; format: cell-based; settings: read-out: pEC50/pIC50 (converted)
T2 construct: expressed in transfected cells; host or cells: NIH3T3
T2 sequence (P08172 1-466): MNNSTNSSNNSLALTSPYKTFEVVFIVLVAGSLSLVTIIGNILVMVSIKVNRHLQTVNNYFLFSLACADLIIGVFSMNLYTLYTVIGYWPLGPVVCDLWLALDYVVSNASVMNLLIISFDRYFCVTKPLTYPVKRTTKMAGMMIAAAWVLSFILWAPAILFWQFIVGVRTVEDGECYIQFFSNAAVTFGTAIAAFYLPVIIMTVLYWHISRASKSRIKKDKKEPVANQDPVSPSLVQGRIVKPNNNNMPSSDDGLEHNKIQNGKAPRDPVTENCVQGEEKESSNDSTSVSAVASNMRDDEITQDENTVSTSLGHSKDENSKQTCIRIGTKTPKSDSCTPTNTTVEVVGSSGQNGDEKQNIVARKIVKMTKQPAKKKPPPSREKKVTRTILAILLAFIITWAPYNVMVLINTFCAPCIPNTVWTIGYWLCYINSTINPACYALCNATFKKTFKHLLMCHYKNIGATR
Description: as §1, §2

COc1ccc(CC(=O)N(Cc2ccc(C)cc2)C2CCN(C)CC2)cc1 [Example 50ELH27, 2-(4-Methoxyphenyl)-N-(4-methylbenzyl)-N-(1-methylpiperidin-4-yl)acetamide]
> 3.16 µM: EC50 (alpha 2A; agonist) | IC50 (alpha 2A; antagonist) | EC50 (m2; agonist) | IC50 (m2; antagonist)

— patent publication US20080051429A1, “USE OF 4-AMINO-PIPERIDINES FOR TREATING SLEEP DISORDERS” (priority 2006, published 2008)
